Biological target: Cdk9/cyclinT1 (Homo sapiens (Human), UniProt P50750)
Assay: Cdk9/CyclinT1 IMAP Protocol (fluorescence polarization kinase assay)
Type: biochemical
Details: Table 2; generated using one of the two Cdk9/cyclinT1 assays (IMAP or Alpha Screen), not specified which; unit inferred
Method: Cdk9/CyclinT1 IMAP Protocol
The biological activity of the compounds of the invention can be determined using the assay described below.
Cdk9/cyclinT1 is purchased from Millipore, cat #14-685. The final total protein concentration in the assay 4 nM. […] The final concentration of peptide substrate is 100 nM. The ATP substrate (Adenosine-5′-triphosphate) is purchased from Roche Diagnostics, cat#1140965. The final concentration of ATP substrate is 6 uM. IMAP (Immobilized Metal Assay for Phosphochemicals) Progressive Binding reagent is purchased from Molecular Devices, cat#R8139. Fluorescence polarization (FP) is used for detection. The 5TAMRA-cdk7tide peptide is phosphorylated by Cdk9/cyclinT1 kinase using the ATP substrate. The Phospho-5TAMRA-cdk7tide peptide substrate is bound to the IMAP Progressive Binding Reagent. The binding of the IMAP Progressive Binding Reagent changes the fluorescence polarization of the 5TAMRA-cdk7tide peptide which is measured at an excitation of 531 nm and FP emission of 595 nm. Assays are carried out in 100 mM Tris, pH=7.2, mM MgCl2, 0.05% NaN3, 0.01% Tween-20, 1 mM dithiothreitol and 2.5% dimethyl sulfoxide. IMAP Progressive Binding Reagent is diluted 1:800 in 100% 1× Solution A from Molecular Devices, cat#R7285.
General protocol is as follows: To 10 ul of cdk9/cyclinT1, 0.5 ul of test compound in dimethyl sulfoxide is added. 5TAMRA-cdk7tide and ATP are mixed. 10 ul of the 5TAMRA-cdk7tide/ATP mix is added to start the reaction. The reaction is allowed to proceed for 4.5 hrs. 60 uL of IMAP Progressive Binding Reagent is added. After >1 hr of incubation, plates are read on the Envision 2101 from Perkin-Elmer. The assay is run in a 384-well format using black Corning plates, cat#3573.

Chain of Cdk9/cyclinT1 (P50750 whole entry): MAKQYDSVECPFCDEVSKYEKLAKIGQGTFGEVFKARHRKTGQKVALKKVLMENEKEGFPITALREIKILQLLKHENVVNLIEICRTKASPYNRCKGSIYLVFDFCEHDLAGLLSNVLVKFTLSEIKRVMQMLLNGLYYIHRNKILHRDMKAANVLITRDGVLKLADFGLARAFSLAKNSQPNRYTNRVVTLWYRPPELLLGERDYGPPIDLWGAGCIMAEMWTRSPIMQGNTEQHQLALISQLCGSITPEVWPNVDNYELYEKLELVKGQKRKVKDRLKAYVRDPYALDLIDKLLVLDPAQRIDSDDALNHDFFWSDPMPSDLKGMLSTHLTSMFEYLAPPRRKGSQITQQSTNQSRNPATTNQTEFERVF
Chain of Cdk9/cyclinT1 (O60563 whole entry partner): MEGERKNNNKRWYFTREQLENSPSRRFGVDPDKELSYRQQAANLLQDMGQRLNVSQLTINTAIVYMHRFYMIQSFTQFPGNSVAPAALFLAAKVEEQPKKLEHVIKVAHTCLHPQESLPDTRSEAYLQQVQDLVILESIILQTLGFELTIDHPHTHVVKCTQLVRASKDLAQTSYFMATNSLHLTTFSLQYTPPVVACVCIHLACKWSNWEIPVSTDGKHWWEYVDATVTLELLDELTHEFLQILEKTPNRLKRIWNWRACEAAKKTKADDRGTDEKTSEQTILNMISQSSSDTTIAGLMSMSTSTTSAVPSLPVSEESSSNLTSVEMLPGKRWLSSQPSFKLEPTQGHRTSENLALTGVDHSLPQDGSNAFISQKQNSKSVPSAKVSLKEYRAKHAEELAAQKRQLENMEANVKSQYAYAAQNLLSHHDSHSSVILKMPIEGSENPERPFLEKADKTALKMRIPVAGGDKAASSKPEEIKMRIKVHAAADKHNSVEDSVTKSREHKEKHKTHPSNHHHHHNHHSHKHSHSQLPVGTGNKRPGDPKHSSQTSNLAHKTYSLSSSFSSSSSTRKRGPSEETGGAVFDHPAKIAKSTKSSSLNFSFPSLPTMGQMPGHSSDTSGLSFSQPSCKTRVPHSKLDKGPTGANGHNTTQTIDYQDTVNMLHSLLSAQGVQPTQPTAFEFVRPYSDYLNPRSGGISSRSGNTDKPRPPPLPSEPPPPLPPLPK

IC50 [nM] | Molecule
16.1 | Clc1cnc(N[C@H]2CC[C@H](NC3CCOC3)CC2)cc1-c1nc(NCC2CCOCC2)ccc1Cl (mixture of isomers) [Compound 280, 3,5′-dichloro-N6-((tetrahydro-2H-pyran-4-yl)methyl)-N2′-(trans-4-(tetrahydrofuran-3-yl-amino)cyclohexyl)-2,4′-bipyridine-2′,6-diamine]
7.94 | CC1(C)C[C@H](CNc2cccc(-c3cc(N[C@H]4CC[C@H](N)CC4)ncc3Cl)n2)CCO1 (single isomer, unassigned) [Compound 256]
7.94 | CC1(C)C[C@@H](CNc2cccc(-c3cc(N[C@H]4CC[C@H](N)CC4)ncc3Cl)n2)CCO1 (single isomer, unassigned) [Compound 257]
27 | C[C@H]1C[C@@H](Nc2cc(-c3cccc(NCc4cccc(F)c4)n3)c(Cl)cn2)CC[C@@H]1N (stereo in doubt) [Compound 152]
11 | COC[C@@H](C)N[C@H]1CC[C@H](Nc2cc(-c3nc(NCC4CCCCO4)ccc3Cl)c(Cl)cn2)CC1 (stereo in doubt) [Compound 321, 3,5′-dichloro-N2′-(trans-4-((R)-1-methoxypropan-2-yl-amino)cyclohexyl)-N6-(((S)-tetrahydro-2H-pyran-2-yl)methyl)-2,4′-bipyridine-2′,6-diamine]
10 | COC[C@@H](C)N[C@H]1CC[C@H](Nc2cc(-c3nc(NCC4CCCCO4)ccc3Cl)c(Cl)cn2)CC1 (stereo in doubt) [Compound 325, 3,5′-dichloro-N2′-(trans-4-((R)-1-methoxypropan-2-yl-amino)cyclohexyl)-N6-(((R)-tetrahydro-2H-pyran-2-yl)methyl)-2,4′-bipyridine-2′,6-diamine]
522 | NC(=O)c1ccc(-c2cc(N[C@H]3CC[C@H](N)CC3)ncc2Cl)nc1NCc1cccc(F)c1 [Compound 14, 2′-((1r,4r)-4-aminocyclohexylamino)-5′-chloro-6-(3-fluorobenzylamino)-2,4′-bipyridine-5-carboxamide]
23.6 | NC(=O)c1cc(NCc2cccc(F)c2)nc(-c2cc(N[C@H]3CC[C@H](N)CC3)ncc2Cl)c1 [Compound 16, 2′-(trans-4-aminocyclohexylamino)-5′-chloro-6-(3-fluorobenzylamino)-2,4′-bipyridine-4-carboxamide]
23.2 | N[C@H]1CC[C@H](Nc2cc(-c3cc(C(=O)O)cc(NCc4cccc(F)c4)n3)c(Cl)cn2)CC1 [Compound 17, 2′-(trans-4-aminocyclohexylamino)-5′-chloro-6-(3-fluorobenzylamino)-2,4′-bipyridine-4-carboxylic acid]
7.95 | OCCN[C@H]1CC[C@H](Nc2cc(-c3cccc(NCc4cccc(F)c4)n3)c(Cl)cn2)CC1 [Compound 19, 2-(trans-4-(5′-chloro-6-(3-fluorobenzylamino)-2,4′-bipyridin-2′-yl-amino)cyclohexylamino)ethanol]
7.95 | CS(=O)(=O)CCN[C@H]1CC[C@H](Nc2cc(-c3cccc(NCc4cccc(F)c4)n3)c(Cl)cn2)CC1 [Compound 20, 5′-chloro-N6-(3-fluorobenzyl)-N2′-(trans-4-(2-(methylsulfonyl)ethylamino)cyclohexyl)-2,4′-bipyridine-2′,6-diamine]
7.95 | CN[C@H]1CC[C@H](Nc2cc(-c3cccc(NCc4cccc(F)c4)n3)c(Cl)cn2)CC1 [Compound 21, 5′-chloro-N6-(3-fluorobenzyl)-N2′-(trans-4-(methylamino)cyclohexyl)-2,4′-bipyridine-2′,6-diamine]
7.95 | CNC[C@H]1CC[C@H](Nc2cc(-c3cccc(NCc4cccc(F)c4)n3)c(Cl)cn2)CC1 [Compound 22, 5′-chloro-N6-(3-fluorobenzyl)-N2′-(trans-4-((methylamino)methyl)cyclohexyl)-2,4′-bipyridine-2′,6-diamine]

The remaining lines, values behind:

Molecule | IC50 [nM]
3,5′-dichloro-N6-((tetrahydro-2H-pyran-4-yl)methyl)-N2′-(trans-4-(((R)-tetrahydrofuran-2-yl)methyl)aminocyclohexyl)-2,4′-bipyridine-2′,6-diamine [Compound 268] | 8.14
N[C@H]1CC[C@H](Nc2cc(-c3cccc(NCc4cccc(F)c4)n3)c(Cl)cn2)CC1 [Compound 1, N2′-(trans-4-aminocyclohexyl)-5′-chloro-N6-(3-fluorobenzyl)-2,4′-bipyridine-2′,6-diamine] | 7.95
N[C@H]1CC[C@H](Nc2cc(-c3cccc(NCC4CCCCC4)n3)ccn2)CC1 [Compound 2, N2′-(trans-4-aminocyclohexyl)-N6-(cyclohexylmethyl)-2,4′-bipyridine-2′,6-diamine] | 25.6
N[C@H]1CC[C@H](Nc2ncc(Cl)c(-c3cccc(NCC4CCCCC4)n3)n2)CC1 [Compound 3, trans-N1-(5-chloro-4-(6-(cyclohexylmethylamino)pyridin-2-yl)pyrimidin-2-yl)cyclohexane-1,4-diamine] | 238
NC[C@H]1CC[C@H](Nc2cc(-c3cccc(NCc4cccc(F)c4)n3)c(Cl)cn2)CC1 [Compound 4, N2′-(trans-4-(aminomethyl)cyclohexyl)-5′-chloro-N6-(3-fluorobenzyl)-2,4′-bipyridine-2′,6-diamine] | 9.05
Fc1cccc(CNc2cccc(-c3cc(NC4CCNCC4)ncc3Cl)n2)c1 [Compound 5, 5′-chloro-N6-(3-fluorobenzyl)-N2′-(piperidin-4-yl)-2,4′-bipyridine-2′,6-diamine] | 39.7
CCS(=O)(=O)N1CCC(Nc2cc(-c3cccc(NCc4cccc(F)c4)n3)c(Cl)cn2)CC1 [Compound 6, 5′-chloro-N2′-(1-(ethylsulfonyl)piperidin-4-yl)-N6-(3-fluorobenzyl)-2,4′-bipyridine-2′,6-diamine] | 136
CN(C)CC(=O)N[C@H]1CC[C@H](Nc2cc(-c3cccc(NCc4cccc(F)c4)n3)c(Cl)cn2)CC1 [Compound 7, N-(trans-4-(5′-chloro-6-(3-fluorobenzylamino)-2,4′-bipyridin-2′-yl-amino)cyclohexyl)-2-(dimethylamino)acetamide] | 24.8
O[C@H]1CC[C@H](Nc2cc(-c3cccc(NC4CCNCC4)n3)c(Cl)cn2)CC1 [Compound 8, trans-4-(5′-chloro-6-(piperidin-4-yl-amino)-2,4′-bipyridin-2′-yl-amino)cyclohexanol] | 84.8
NC[C@H]1CC[C@H](Nc2cc(-c3cccc(OCc4cccc(F)c4)n3)c(Cl)cn2)CC1 [Compound 9, N-(trans-4-(aminomethyl)cyclohexyl)-5′-chloro-6-(3-fluorobenzyloxy)-2,4′-bipyridin-2′-amine] | 7.95
Fc1cccc(CNc2cncc(-c3ccnc(N[C@H]4CC[C@H](NCc5ccccc5)CC4)c3)n2)c1 [Compound 10, trans-N1-benzyl-N4-(4-(6-(3-fluorobenzylamino)pyrazin-2-yl)pyridin-2-yl)cyclohexane-1,4-diamine] | 18.6
N[C@H]1CC[C@H](Nc2cc(-c3cc(C(F)(F)F)cc(NCc4cccc(F)c4)n3)ccn2)CC1 [Compound 11, N2′-(trans-4-aminocyclohexyl)-N6-(3-fluorobenzyl)-4-(trifluoromethyl)-2,4′-bipyridine-2′,6-diamine] | 133
N#Cc1ccc(-c2cc(N[C@H]3CC[C@H](N)CC3)ncc2Cl)nc1NCc1cccc(F)c1 [Compound 13, 2′-((1r,4r)-4-amonocyclohexylamino)-5′-chloro-6-(3-fluorobenzylamino)-2,4′-bipyridine-5-carbonitrile] | 7.95

— patent publication US8778951B2, “Heteroaryl compounds and their uses” (Novartis AG, priority 2009, dated 2014)
